Experiment [1] concerns 22Rv1. Description: 22Rv1 cell proliferation assay (Experimental Example 3). The format is cell-based, human. The conditions noted are these: for 22Rv1 cell count, % of control: 6 days. On the procedure: The human prostate cancer cell line, 22Rv1 has been reported to express a high level of AR-V7. […] Standard culture media was RPMI-1640 supplemented with 10% fetal bovine serum. The test compound initially was dissolved in DMSO at 50 mM. This stock solution was then diluted as needed for the indicated concentrations. […]
Cell Culture. Human CaP cell lines, LNCaP, 22Rv1, VCaP, PC3, and DU145 are obtained from the American Type Culture Collection (ATCC) and maintained in the standard culture media: RPMI-1640 supplemented with 10% fetal bovine serum (FBS). LNCaP, 22Rv1, and VCaP are androgen-responsive cell lines, while PC3 and DU145 are not. To establish SAT resistant CaP cell lines, LNCaP, 22Rv1, and VCaP are treated continuously with 10-50 μM abiraterone, apalutamide, darolutamide, or enzalutamide. After 3-6 months, stable cell lines are established and designated as LNCaP-Abi^R, LNCaP-Apa^R, LNCaP-Daro^R, LNCaP-Enz^R, VCaP-Abi^R, VCaP-Apa^R, VCaP-Daro^R, VCaP-Enz^R, 22Rv1-Abi^R, 22Rv1-Apa^R, 22Rv1-Daro^R and 22Rv1-Enz^R. Unless otherwise specified, the standard culture media for these SAT-resistant cell lines included 10 μM of their respective SAT. For the proteasome inhibitor study, the inhibitors MG132 and Epoxomicin are used. The E3 ligase inhibitors Heclin, Nutlin 3a, Thalidomide, and VH298 are used. Cell lines obtained from ATCC are confirmed by checking their morphology using optical microscopy, establishing baselines for cell proliferation, verifying species of origin using isoenzymology, and characterizing the cell's DNA fingerprint using short tandem repeat (STR) profiling. Mycoplasma contamination is also assessed using a PCR based detection system.

The subject of experiment [2] is 22Rv1 cells transfected with AR-V7 or AR-FL. In words: Proliferation of 22Rv1 cells transfected with AR-V7 and/or AR-FL. The note with it: 1 μM. The format is cell-based, human. From the text:
Transient Transfections. One μg of a plasmid containing cDNA of AR-V7 or AR-FL is transfected into indicated the CaP cell lines on 6-well plates. Three μl of lipofectamine 3000 is used for each transfection.

Experiment [3] relates to AR-FL. In words: Immunoblot of AR-FL in harvested xenograft tumors. The class given is in vivo, human. Here is the method:
(§1) Immunoblot Analysis. CaP cells are collected and lysed with the lysis buffer (20 mM Tris-HCl (pH 7.5), 150 mM NaCl, 1 mM Na2EDTA, 1 mM EGTA, 1% Triton, 2.5 mM sodium pyrophosphate, 1 mM beta-glycerophosphate, 1 mM Na3VO4, and 1 μg/ml leupeptin) containing 1 mM phenylmethylsulfonyl fluoride (PMSF). Cell lysates are then centrifuged and protein in the supernatant is quantified. After separating 25-50 μg of protein using SDS-PAGE, samples are incubated with AR-V7, GR, PR, ERα, AR-FL, ubiquitin, or β-actin antibodies. For AR-V7, AR-FL, PR, GR, and ERα immunoblots, primary antibody is diluted 1:1000 in 5% skim milk. For the β-actin immunoblot, 1:10000 diluted primary antibody is used. […] Following the incubation with appropriate secondary antibody, immunoblots are analyzed using SuperSignal West Femto Maximum Sensitivity Substrate (ThermoFisher).
(§2) Mice are then treated daily with Test Compound with or without enzalutamide via the indicated route (intratumoral, intraperitoneal, or oral) for five to six weeks. At the end of the study, all animals are sacrificed and tumors are harvested and analyzed. Statistical significance is calculated using the Student's t-test for paired comparisons of experimental groups and, where appropriate, by Wilcoxon rank sum test, and by 2-way ANOVA. […]
(§3) The in vivo effects of the Compound of Example 16 are assessed in mice using enzalutamide-resistant CaP xenografts. […]
(Immunoblotting shows a protein as a band on a membrane.)

The target in experiment [4] is T1, AR-V7 (Homo sapiens, UniProt P10275).
T1 sequence (P10275 1-644 isoform P10275-3): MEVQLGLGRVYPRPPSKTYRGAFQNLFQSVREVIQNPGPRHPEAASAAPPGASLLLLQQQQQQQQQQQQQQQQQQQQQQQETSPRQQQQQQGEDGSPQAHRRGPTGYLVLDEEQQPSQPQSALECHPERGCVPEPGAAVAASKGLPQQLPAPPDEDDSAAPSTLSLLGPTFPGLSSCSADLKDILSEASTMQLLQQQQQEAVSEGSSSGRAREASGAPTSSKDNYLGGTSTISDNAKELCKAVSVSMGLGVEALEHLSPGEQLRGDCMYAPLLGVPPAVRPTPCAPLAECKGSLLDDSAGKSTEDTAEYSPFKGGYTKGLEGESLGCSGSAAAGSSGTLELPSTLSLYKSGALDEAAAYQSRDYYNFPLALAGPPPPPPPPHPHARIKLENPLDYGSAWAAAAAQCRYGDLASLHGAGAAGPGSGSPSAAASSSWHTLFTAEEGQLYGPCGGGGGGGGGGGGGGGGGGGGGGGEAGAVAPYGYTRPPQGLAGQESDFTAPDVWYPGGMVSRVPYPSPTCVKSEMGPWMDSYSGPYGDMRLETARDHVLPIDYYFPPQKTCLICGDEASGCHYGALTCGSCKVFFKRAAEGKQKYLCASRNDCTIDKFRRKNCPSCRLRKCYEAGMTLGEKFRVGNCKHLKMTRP
In words: Immunoblot of AR-V7 in harvested xenograft tumors. The class given is in vivo. Further details: endogenous in cells; host or cells: 22Rv1 (also VCaP, LNCaP and SAT-resistant sublines). On the procedure: as §1, §2, §3

Setting [5] is: intratumoral, 22Rv1-Enz^R xenograft, end of study.

Here are results for one molecule from US20230132823A1, “BI-FUNCTIONAL COMPOUNDS AND METHODS FOR TARGETED UBIQUITINATION OF ANDROGEN RECEPTOR” (MONTELINO THERAPEUTICS, INC., priority 2020, published 2023).

Turning to `Cc1ncsc1-c1ccc([C@H](C)NC(=O)[C@@H]2C[C@@H](O)CN2C(=O)[C@@H](NC(=O)CCCCNC(=O)COc2c(-c3csc(N4CCOCC4)n3)ccc(F)c2F)C(C)(C)C)cc1` [Example 16, (2S,4R)-1-((S)-2-(5-(2-(2,3-difluoro-6-(2-morpholinothiazol-4-yl)phenoxy)acetamido)pentanamido)-3,3-dimethylbutanoyl)-4-hydroxy-N-((S)-1-(4-(4-methylthiazol-5-yl)phenyl)ethyl)pyrrolidine-2-carboxamide], the results for the “22Rv1 cell count, % of control” value in experiment [1] (0.01 μM), in experiment [1] (0.1 μM) and in experiment [1] (1 μM) were “approximately 90 % of control”, ~70 % of control and ~65 % of control, respectively. For the same molecule, the “22Rv1 cell count, % of the control (side to side cell line comparison)” value in experiment [1] (1 μM) was “approximately 40 % of the control”. Also, the “inhibitory effect after transfection of both AR-V7 and AR-FL into 22Rv1 cells” value in experiment [2] (both transfected) was “completely abrogated”. Besides, the “inhibitory effect after transfecting AR-V7 or AR-FL into 22Rv1 cells” value in experiment [2] (single transfection) is “partial resistance”. For the same molecule, in experiment [3] (IP administration), the “AR-FL protein expression in Enz^R CaP tumors” value is recorded as “decreased”. Moreover, the “AR-FL protein level in treated tumors” value in experiment [3] (setting [5]) is “significant decrease”. The “AR-V7 protein expression in Enz^R CaP tumors” value in experiment [4] (IP administration) was “decreased”. For the same molecule, the “AR-V7 protein level in treated tumors” value in experiment [4] (setting [5]) is recorded as “significant decrease”.
